Some test systems named below: ACHN; BT-549; CCRF-CEM; COLO 205; DU-145; EKVX; HCT-15; HT-29; Hs-578T; IGROV-1; MDA-N; OVCAR-3; OVCAR-5; RPMI-8226; RXF 393; SK-MEL-2; SK-MEL-5; SK-OV-3; T47D; UACC-257.
What all share (assay): growth of human tumour cells (NCI), 48 h

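These data come from cells grown in 96-well plates and exposed to compound for 48 hours at five concentrations. Abbreviation: GI50, concentration required for 50% inhibition of growth.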 Activity calls are given as the source filed them. No stated cut-off is given here; in the data, active = GI50 up to about 1.1 µM and inactive = higher.

For `c1ccc2c(c1)SC1Sc3ccccc3[S+]21` (stereo not given), the GI50 was 14.1 µM (inactive) with ACHN; 20.1 µM (inactive) in the assay on BT-549; 16.5 µM (inactive) with CCRF-CEM; 11.1 µM (inactive) in the assay with COLO 205; 21.6 µM (inactive) in the assay with DU-145; 22 µM (inactive) with EKVX. In addition, the GI50 is over 49.9 µM in the assay on HCT-15; 27.2 µM (inactive) in the assay on HT-29; 64.9 µM (inactive) in the assay with Hs-578T; 22 µM (inactive) in the assay on IGROV-1; 22.4 µM (inactive) with MDA-N; 19.5 µM (inactive) in the assay with OVCAR-3. Moreover, the GI50 was 27 µM (inactive) in the assay on OVCAR-5; 12.9 µM (inactive) in the assay with RPMI-8226; > 45.1 µM (inactive) in the assay on RXF 393; 34.8 µM (inactive) with SK-MEL-2; 7.28 µM (inactive) with SK-MEL-5; > 100 µM (inactive) in the assay on SK-OV-3. The GI50 was 12.5 µM (inactive) in the assay on T47D and 17.3 µM (inactive) in the assay with UACC-257.
